According to patent US10513529B2, “1,2,4-triazolo-[3,4-b]-1,3,4-thiadiazole derivatives” (GALENICA S.A., priority 2016, dated 2019):
pIC50: −log10 of the molar value.

Tests used:
[1] = system: OVCAR-3 human ovarian cancer cell line; assay: MTT cytostatic-cytotoxic activity, OVCAR-3; assay type: cell-based; conditions: OVCAR-3, 48 h treatment; for GI50 / pIC50: Homo sapiens; for pIC50: kills 50% of the cells
Protocol: (§1) SKOV-3 (SKOV-3) (ATCC HTB 77) and OVCAR-3 (ATCC® HTB-161™)
(§2) Human ovarian adenocarcinoma cells, which are grown easily in monolayer culture with epithelial-like morphology. SKOV-3 are resistant to tumor necrosis factor (TNF) and to other cytotoxic drugs such as cisplatin, and adriamycin, while OVCAR-3 are resistant to adriamycin, cisplatin and melphalan. These cell lines express androgens, estrogens and progesterone receptors. When SKOV-3 or OVCAR-3 cells are subcutaneously implanted in nude mice, SCID mice, a moderately differentiated tumor develops, and the resulting model resembles primary ovarian adenocarcinoma in humans.
(§3) All cancer cell lines are stored in a liquid nitrogen tank in 2.5 ml cryovials (Corning-Costar, Cambridge, Mass.). DMSO (dimethylsulfoxide) act as a cryoprotectant and is added to prevent the formation of ice crystals which may lyse the cells. The Cells were grown as monolayer cultures in T-75 flasks (Corning-Costar, Cambridge, Mass.) and maintained at 37° C. in 5% CO2 incubator & 100% relative humidity. The cultures medium used are McCoy's 5a Medium, supplemented with 10% fetal bovine serum (FBS, Gibco) and 1% antibiotics (100 IU/ml penicillin/100 µg/ml streptomycin), sterilized by filtration (Corning-Costar filter, diameter 0.2 μm, RPMI-1640 and 50% RPMI-1640 (Catalog No 30-2001) plus 50% Mammary Epithelial Growth Medium (MEGM), supplemented with 10% fetal bovine serum (FBS, Gibco) and 1% antibiotics (100 IU/ml penicillin/100 μg/ml streptomycin). The passage is performed every 3-4 to days as follows: Cells are washed with sterile PBS (Phosphate buffered saline): 8 g/l NaCl, 0,2 g/l KCl, 1,15 g/l Na2HPO4καl 0,2 g/l KH2PO4. pH:7,4), add 2-3 ml 0.05% trypsin (Gibco 1:250) and 0.02% EDTA to cover the monolayer and incubate the flask at 3TC for 5-10 minutes. Trypsin-EDTA, is used mainly to detach the cells from the flask and prepare a single cell suspension. Finally, the number of cells can be determined by direct counting using a Neubauer chamber and cell viability is determined by staining the cells with trypan blue.
(§4) In the experimental study the in vitro effect of the compound type (I) was evaluated against ovarian cancer cell lines UWB1.289, UWB1.289+BRCA1 Kai SKOV-3.The cells were plated in 96-well plate (MTP) at a density of 1×10^4cells/m1 per well and maintained for 72 h at 3TC in a 5% CO2 incubator and grown as monolayers. The selection of the initial number of cells was made according to the rate of proliferation of the cell line, in order the cells throughout the experiment are in an exponential (log) growth phase. After 24 hours, cells were treated with 1-100 μmol/l of the tested compounds for 48 h. Experiments were carried out using triplicate wells. The viability of cultured cells was estimated by an (3-(4,5-imethylthiazol-2-yl)-2,5-diphenyltetrazolium bromide (MTT) metabolic assay as described previously (Finlay G J, Wilson W R and Baguley B C: Comparison of in vitro activity of cytotoxic drugs towards human carcinoma and leukaemia cell lines. Eur J Cancer Clin Oncol 22: 655-662, 1986; Alley M C, Scudiero D A, Monks A, Hursey M L, Czerwinski M J, Fine D L, et al. Feasibility of drug screening with panels of human tumor cell lines using a microculture tetrazolium assay. Cancer Res 1988; 48:589-601). MTT (Sigma, St Louis, Mo., USA) was dissolved in PBS in a concentration of 5 mg/ml, filter sterilized, and stored at 4° C. MTT (50 μl of stock solution) was added to each culture and incubated for 3 h at 3TC to allow metabolization. Formazan crystals were solubilized by DMSO (100 μl). Absorbance of the converted dye was measured at a wavelength of 540nm on ELISA reader (BioTek, Winooski, Vt., USA).
(§5) GI50: The mean concentration that causes 50% inhibition of cell growth (Growth Inhibition 50%). The calculation of the value is based on the formula: (Tt72x)−(Ct24)/(Ct72)-(Ct24)×100=50
(§6) TGI: The mean concentration that causes 100% inhibition of cell growth (Total Growth Inhibition). […]

[2] = system: SKOV-3 human ovarian cancer cell line; assay: MTT cytostatic-cytotoxic activity, SKOV-3; assay type: cell-based; conditions: for GI50 / pIC50: Homo sapiens, SK-OV-3, SKOV-3, 48 h treatment; for pIC50: kills 50% of the cells; for TGI: SKOV-3, 48 h treatment
Protocol: as §1, §2, §3, §4, §5, §6

[3] = system: MCF-7 human breast cancer cell line; assay: MTT cytostatic-cytotoxic activity, MCF-7; assay type: cell-based; conditions: for GI50 / pIC50: Homo sapiens; for GI50: MCF7, 48 h; for GI50 / TGI: MCF-7, 48 h treatment; for pIC50: MCF7, MCF-7, 48 h treatment, kills 50% of the cells
[4] = system: T-47D human breast cancer cell line; assay: MTT cytostatic-cytotoxic activity, T-47D; assay type: cell-based; conditions: 48 h treatment; for GI50 / pIC50: Homo sapiens, T47D; for GI50: 48 h; for pIC50: kills 50% of the cells
[5] = system: PC-3 human hormone-resistant prostate cancer cell line; assay: MTT cytostatic-cytotoxic activity, PC-3; assay type: cell-based; conditions: PC-3, 48 h treatment; for GI50 / pIC50: Homo sapiens; for pIC50: kills 50% of the cells
[6] = system: MOLT-4 human acute T-leukemia cell line; assay: MTT cytostatic-cytotoxic activity, MOLT-4; assay type: cell-based; conditions: MOLT-4, 48 h treatment; for GI50 / pIC50: Homo sapiens; for pIC50: kills 50% of the cells
in vivo = conditions: both sexes, mouse, in vivo, ip; C57BI/6 mice, acute toxicity
Protocol: (§7) The acute toxicity of the compounds was assessed from lethality by testing different concentrations, starting at 100mg/kg. […] For intraperitoneal (i.p.) treatment, stock solutions of the tested compounds were prepared immediately before use. They were suspended in corn oil in the desired concentration following initial dissolution in 10% dimethylsulfoxide (DMSO). C57BI/6 male and female were used for toxicity studies. Mice were kept under conditions of constant temperature and humidity in sterile cages with water and food.

C57BI/6 mice = assay: in vivo; conditions: i.p., acute toxicity
Protocol: as §7

## COc1cc(Cc2nnc3sc(/C=C/c4ccc(F)cc4)nn23)c(S(=O)(=O)N(C)C)cc1OC [TS25, 3-[2-(N,N-dimethylsulfamoyl)-4,5-dimethoxybenzyl]-6-(E)-4-fluorostyryl-1,2,4-triazolo[3,4-b]-1,3,4-thiazole]
[1]
  GI50: 24 µM
  pIC50: 4.03
  TGI: 68 µM
[2]
  GI50: 18 µM
  pIC50: 4.10
  TGI: 52 µM
[3]
  GI50: 16 µM
  pIC50: 4.07
  TGI: 51 µM
[4]
  TGI: 34 µM
  GI50: 12 µM
  pIC50: 4.12
[5]
  GI50: 8 µM
  pIC50: 4.16
  TGI: 24 µM
[6]
  GI50: 16 µM
  pIC50: 4.11
  TGI: 29 µM
In vivo
  LD50: 345 mg/kg
C57BI/6 mice
  LD10: >500 mg/kg

## COc1cc(Cc2nnc3sc(/C=C/c4ccc(Cl)cc4)nn23)c(S(=O)(=O)N(C)C)cc1OC [TS26, 3-[2-(N,N-dimethylsulfamoyl)-4,5-dimethoxybenzyl]-6-(E)-4-chlorostyryl-1,2,4-triazolo[3,4-b]-1,3,4-thiazole]
[1]
  GI50: 41 µM
  pIC50: < 4.00
  TGI: 87 µM
[2]
  GI50: 38 µM
  pIC50: < 4.00
  TGI: 72 µM
[3]
  GI50: 25 µM
  pIC50: < 4.00
  TGI: 67 µM
[4]
  TGI: >100 µM
  GI50: 78 µM
  pIC50: < 4.00
[5]
  GI50: 19 µM
  pIC50: 4.07
  TGI: 47 µM
[6]
  GI50: 32 µM
  pIC50: < 4.00
  TGI: 81 µM
In vivo
  LD50: 365 mg/kg
C57BI/6 mice
  LD10: >500 mg/kg

## COc1ccc(Cc2nn3c(Cc4cc(OC)c(OC)cc4S(=O)(=O)N(C)C)nnc3s2)cc1 [TS50, 3-[2-(N,N-dimethylsulfamoyl)-4,5-dimethoxybenzyl]-6-(4-methoxybenzyl)-1,2,4-triazolo[3,4-b]-1,3,4-thiazole]
[1]
  GI50: 5 µM
  pIC50: < 4.00
  TGI: 86 µM
[2]
  GI50: 6 µM
  pIC50: < 4.00
  TGI: >100 µM
[3]
  GI50: 40 µM
  pIC50: < 4.00
  TGI: >100 µM
[4]
  TGI: >100 µM
  GI50: 28 µM
  pIC50: < 4.00
[5]
  GI50: 44 µM
  pIC50: < 4.00
  TGI: >100 µM
[6]
  GI50: 10 µM
  pIC50: < 4.00
  TGI: >100 µM
In vivo
  LD50: > 500 mg/kg
C57BI/6 mice
  LD10: >500 mg/kg
  LD50: >500 mg/kg

## COc1cc(Cc2nnc3sc(-c4ccccc4N)nn23)c(S(=O)(=O)N(C)C)cc1OC [TS57, 3-[2-(N,N-dimethylosulfamoyl)-4,5-dimethoxybenzyl]-6-(2-aminophenyl)-1,2,4-triazolo[3,4-b]-1,3,4-thiazole]
[1]
  GI50: 95 µM
  pIC50: < 4.00
  TGI: >100 µM
[2]
  GI50: > 100 µM
  pIC50: < 4.00
  TGI: >100 µM
[3]
  GI50: > 100 µM
  pIC50: < 4.00
  TGI: >100 µM
[4]
  TGI: >100 µM
  GI50: > 100 µM
  pIC50: < 4.00
[5]
  GI50: > 100 µM
  pIC50: < 4.00
  TGI: >100 µM
[6]
  GI50: 94 µM
  pIC50: < 4.00
  TGI: >100 µM
In vivo
  LD50: > 500 mg/kg
C57BI/6 mice
  LD10: >500 mg/kg
  LD50: >500 mg/kg

## COc1cc(Cc2nnc3sc(Cc4ccccc4)nn23)c(S(=O)(=O)N(C)C)cc1OC [TS62, 3-[2-(N,N-dimethylsulfamoyl)-4,5-dimethoxybenzyl]-6-benzyl-1,2,4-triazolo[3,4-b]-1,3,4-thiazole]
[1]
  GI50: 8 µM
  pIC50: < 4.00
  TGI: 68 µM
[2]
  GI50: 12 µM
  pIC50: < 4.00
  TGI: 56 µM
[3]
  GI50: 18 µM
  pIC50: < 4.00
  TGI: >100 µM
[4]
  TGI: >100 µM
  GI50: 24 µM
  pIC50: < 4.00
[5]
  GI50: 27 µM
  pIC50: < 4.00
  TGI: >100 µM
[6]
  GI50: 7 µM
  pIC50: < 4.00
  TGI: 55 µM
In vivo
  LD50: 480 mg/kg
C57BI/6 mice
  LD10: >500 mg/kg

## COc1cc(Cc2nnc3sc(-c4ccc(Cl)cc4)nn23)c(S(=O)(=O)N(C)C)cc1OC [TS63, 3-[2-(N,N-dimethylsulfamoyl)-4,5-dimethoxybenzyl]-6-(4-chlorophenyl)-1,2,4-triazolo[3,4-b]-1,3,4-thiazole]
[1]
  GI50: 3 µM
  pIC50: < 4.00
  TGI: 32 µM
[2]
  GI50: 8 µM
  pIC50: < 4.00
  TGI: 38 µM
[3]
  GI50: 22 µM
  pIC50: < 4.00
  TGI: 50 µM
[4]
  TGI: 55 µM
  GI50: 27 µM
  pIC50: < 4.00
[5]
  GI50: 20 µM
  pIC50: < 4.00
  TGI: 45 µM
[6]
  GI50: 6 µM
  pIC50: 4.11
  TGI: 45 µM
In vivo
  LD50: 430 mg/kg
C57BI/6 mice
  LD10: >500 mg/kg

## COc1cc(Cc2nnc3sc(-c4ccc(N)cc4)nn23)c(S(=O)(=O)N(C)C)cc1OC [TS71, 3-[2-(N,N-dimethylsulfamoyl)-4,5-dimethoxybenzyl]-6-(4-aminophenyl)-1,2,4-triazolo[3,4-b]-1,3,4-thiazole]
[1]
  GI50: 97 µM
  pIC50: < 4.00
  TGI: >100 µM
[2]
  GI50: > 100 µM
  pIC50: < 4.00
  TGI: >100 µM
[3]
  GI50: > 100 µM
  pIC50: < 4.00
  TGI: >100 µM
[4]
  TGI: >100 µM
  GI50: > 100 µM
  pIC50: < 4.00
[5]
  GI50: > 100 µM
  pIC50: < 4.00
  TGI: >100 µM
[6]
  GI50: 55 µM
  pIC50: < 4.00
  TGI: >100 µM
In vivo
  LD50: > 500 mg/kg
C57BI/6 mice
  LD10: >500 mg/kg
  LD50: >500 mg/kg
